US20240336608A1, “IL4I1 INHIBITORS AND METHODS OF USE” (Merck Sharp & Dohme LLC, priority 2023, published 2024)

Each compound was assayed against T1, recombinant IL4I1 (Homo sapiens, UniProt Q96RQ9) (assay: IL4I1 Enzymatic Assay (Amplex Red/HRP coupled detection of H2O2, fluorescence)). Settings: 1 nM recombinant IL4I1; four-hour pre-incubation with compound; 1 mM each Phe, Tyr, Trp; ten-point titration.
T1 construct: purchased R&D Systems 5684-AO-020
T1 sequence (Q96RQ9 22-567): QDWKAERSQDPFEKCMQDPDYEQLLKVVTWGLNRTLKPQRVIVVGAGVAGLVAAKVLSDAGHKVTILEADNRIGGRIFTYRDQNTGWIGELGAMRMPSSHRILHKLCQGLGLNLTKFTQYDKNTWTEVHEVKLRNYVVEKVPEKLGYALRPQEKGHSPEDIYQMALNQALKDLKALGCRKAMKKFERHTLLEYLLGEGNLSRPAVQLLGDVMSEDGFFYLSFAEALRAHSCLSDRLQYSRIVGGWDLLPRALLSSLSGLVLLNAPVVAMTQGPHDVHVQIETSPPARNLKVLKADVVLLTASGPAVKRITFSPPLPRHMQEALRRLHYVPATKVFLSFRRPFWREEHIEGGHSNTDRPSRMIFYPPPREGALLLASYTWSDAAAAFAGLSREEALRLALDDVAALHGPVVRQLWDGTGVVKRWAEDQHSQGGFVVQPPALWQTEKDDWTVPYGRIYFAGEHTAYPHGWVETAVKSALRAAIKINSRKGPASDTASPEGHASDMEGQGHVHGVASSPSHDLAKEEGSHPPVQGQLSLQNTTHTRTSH
Type: biochemical
Description: Interleukin 4 inducible protein 1 (IL4I1) is an L-amino oxidase that catalyzes the oxidation of aromatic residues (Phe, Trp and Tyr): L-amino acid+H2O+O2→2-oxo acid+NH3+H2O2. Equal molar of H2O2 and the corresponding alpha-ketoacid are produced when IL4I1 and substrate are added. In this assay, the hydrogen peroxide generated by IL4I1 is then detected through a coupled reaction with Amplex Red (10-acetyl-3,7-dihydroxyphenoxazine) and […] (HRP) to produce Resorufin product that could be detected in the form of fluorescence signals. The assessment of the inhibitory effect of small molecules (EC50) on IL4I1 is measured by the effectiveness of the compounds to inhibit the production of H202.
Using this assay, the potency (EC50) of each compound was determined from a ten-point (1:3 serial dilution) titration curve using the following outlined procedure. To each well of a black flat-bottom Greiner (Cat #781076) 384 well-plate, 125 nL of compound (0.5% DMSO in final assay volume of 25 μL) was dispensed, followed by the addition of 12.5 μL of 1× assay buffer (50 mM Hepes 7.0 and 0.005% Tween20 (Sigma, Cat #P8341; low peroxide grade)) containing 2 nM of recombinant IL4I1 (R&D Systems, Cat #5684-AO-020). Plates were placed in an ambient temperature humidified chamber for a four-hour pre-incubation with compound. Subsequently, each reaction was initiated by the addition of 12.5 μL 1× assay buffer containing 2 mM of each aromatic amino acids (Phe/Tyr/Trp), 0.1 mM Amplex Red and 2 U/mL of HRP. The final reaction in each well of 25 μL consists of 1 nM of IL4I1, 1 mM of each residue (Phe, Tyr and Trp), 0.05 mM Amplex Red and 1 U/mL of HRP. It should be noted that the concentrations of Amplex Red and HRP used here are in excess such that the conversion of H2O2 to Resorufin product occurs instantaneously and non-rate limiting. Reactions were allowed to proceed for 120 minutes followed by fluorescence readout on a Spectramax with the following set parameters: 544 nm excitation/590 nm emission, 570 nm cutoff (EnVision is an alternative reader). Dose-response curves were generated by plotting percent effect (% inhibition; Y-axis) vs. Log10 compound concentrations (X-axis). EC50 values were calculated using a non-linear regression, four-parameters sigmoidal dose-response model and are shown in Table 16.

| EC50 | SMILES |
| --- | --- |
| 113 nM | CC(C#N)n1cc(C(=O)NCc2cc(-c3ccncc3)on2)nn1 (single isomer, unassigned) [Example 276, 1-(1-cyanoethyl)-N-((5-(pyridin-4-yl)isoxazol-3-yl)methyl)-1H-1,2,3-triazole-4-carboxamide] |
| 184 nM | CC(C#N)n1cc(C(=O)NCc2cc(-c3ccncc3)no2)nn1 (single isomer, unassigned) [Example 285, 1-(1-cyanoethyl)-N-((3-(pyridin-4-yl)isoxazol-5-yl)methyl)-1H-1,2,3-triazole-4-carboxamide] |
| 72 nM | CC(C#N)n1cc(C(=O)NCc2cc(-c3ccncc3)no2)nn1 (single isomer, unassigned) [Example 286, 1-(1-cyanoethyl)-N-((3-(pyridin-4-yl)isoxazol-5-yl)methyl)-1H-1,2,3-triazole-4-carboxamide] |
| 209 nM | CC(C(N)=O)n1cc(C(=O)NCc2nnc(-c3ccccc3)s2)nn1 (single isomer, unassigned) [Example 318, 1-(1-amino-1-oxopropan-2-yl)-N-((5-phenyl-1,3,4-thiadiazol-2-yl)methyl)-1H-1,2,3-triazole-4-carboxamide] |
| 8 nM | CC(C(N)=O)n1cc(C(=O)NCc2nnc(-c3ccccc3)s2)nn1 (single isomer, unassigned) [Example 319, 1-(1-amino-1-oxopropan-2-yl)-N-((5-phenyl-1,3,4-thiadiazol-2-yl)methyl)-1H-1,2,3-triazole-4-carboxamide] |
| 149 nM | CC(O)c1cc(C(=O)NCc2nnc(-c3ccccc3)s2)on1 (single isomer, unassigned) [Example 329, 3-(1-hydroxyethyl)-N-((5-phenyl-1,3,4-thiadiazol-2-yl)methyl)isoxazole-5-carboxamide] |
| 69 nM | CC(O)c1cc(C(=O)NCc2nnc(-c3ccccc3)s2)on1 (single isomer, unassigned) [Example 330, 3-(1-hydroxyethyl)-N-((5-phenyl-1,3,4-thiadiazol-2-yl)methyl)isoxazole-5-carboxamide] |
| 67 nM | Cc1ccc(-n2cc(C(=O)NCc3ccc(-n4nccn4)nn3)nn2)c(C)n1 (single isomer, unassigned) [Example 344, N-((6-(2H-1,2,3-triazol-2-yl)pyridazin-3-yl)methyl)-1-(2,6-dimethylpyridin-3-yl)-1H-1,2,3-triazole-4-carboxamide] |
| 175 nM | Cc1ccc(-n2cc(C(=O)NCc3ccc(-n4ccnn4)nn3)nn2)c(C)n1 (single isomer, unassigned) [Example 345, N-((6-(1H-1,2,3-triazol-1-yl)pyridazin-3-yl)methyl)-1-(2,6-dimethylpyridin-3-yl)-1H-1,2,3-triazole-4-carboxamide] |
| 880 nM | CC(NC(=O)c1cn(CC(F)F)nn1)c1ccc(-c2ccccc2)nn1 (single isomer, unassigned) [Example 348, 1-(2,2-difluoroethyl)-N-(1-(6-phenylpyridazin-3-yl)ethyl)-1H-1,2,3-triazole-4-carboxamide] |
| 14 nM | CC(NC(=O)c1cn(CC(F)F)nn1)c1ccc(-c2ccccc2)nn1 (single isomer, unassigned) [Example 349, 1-(2,2-difluoroethyl)-N-(1-(6-phenylpyridazin-3-yl)ethyl)-1H-1,2,3-triazole-4-carboxamide] |

Continued, compound first:

| SMILES | EC50 |
| --- | --- |
| O=C(NCc1nnc(-c2ccccc2)s1)c1cn([C@@H]2C[C@@H]2C(F)F)nn1 (single isomer, unassigned) [Example 145, cis-1-(-2-(difluoromethyl)cyclopropyl]-N-[(5-phenyl-1,3,4-thiadiazol-2-yl)methyl]-1H-1,2,3-triazole-4-carboxamide] | 5 nM |
| O=C(NCc1nnc(-c2ccccc2)s1)c1cn([C@@H]2C[C@@H]2C(F)F)nn1 (single isomer, unassigned) [Example 146, cis-1-(-2-(difluoromethyl)cyclopropyl]-N-[(5-phenyl-1,3,4-thiadiazol-2-yl)methyl]-1H-1,2,3-triazole-4-carboxamide] | 244 nM |
| CC(NC(=O)c1cn(C2CC2)nn1)c1nnc(-c2ccccc2)s1 (single isomer, unassigned) [Example 244, 1-cyclopropyl-N-(1-(5-phenyl-1,3,4-thiadiazol-2-yl)ethyl)-1H-1,2,3-triazole-4-carboxamide] | 587 nM |
| CC(NC(=O)c1cn(C2CC2)nn1)c1nnc(-c2ccccc2)s1 (single isomer, unassigned) [Example 245, 1-cyclopropyl-N-(1-(5-phenyl-1,3,4-thiadiazol-2-yl)ethyl)-1H-1,2,3-triazole-4-carboxamide] | 23 nM |
| CC(NC(=O)c1cn(CC(F)F)nn1)c1nnc(-c2ccccc2)s1 (single isomer, unassigned) [Example 251, 1-(2,2-difluoroethyl)-N-(1-(5-phenyl-1,3,4-thiadiazol-2-yl)ethyl)-1H-1,2,3-triazole-4-carboxamide] | 84 nM |
| CC(NC(=O)c1cn(CC(F)F)nn1)c1nnc(-c2ccccc2)s1 (single isomer, unassigned) [Example 252, 1-(2,2-difluoroethyl)-N-(1-(5-phenyl-1,3,4-thiadiazol-2-yl)ethyl)-1H-1,2,3-triazole-4-carboxamide] | 15 nM |
| CC(NC(=O)c1cn(C)nn1)c1nnc(-c2ccccc2)s1 (single isomer, unassigned) [Example 258, 1-methyl-N-(1-(5-phenyl-1,3,4-thiadiazol-2-yl)ethyl)-1H-1,2,3-triazole-4-carboxamide] | 492 nM |
| CC(NC(=O)c1cn(C)nn1)c1nnc(-c2ccccc2)s1 (single isomer, unassigned) [Example 259, 1-methyl-N-(1-(5-phenyl-1,3,4-thiadiazol-2-yl)ethyl)-1H-1,2,3-triazole-4-carboxamide] | 26 nM |
| Cc1ccc(-n2cc(C(=O)NC(C)c3nnc(-c4ccccc4)s3)nn2)c(C)n1 (single isomer, unassigned) [Example 262, 1-(2,6-dimethylpyridin-3-yl)-N-(1-(5-phenyl-1,3,4-thiadiazol-2-yl)ethyl)-1H-1,2,3-triazole-4-carboxamide] | 85 nM |
| Cc1ccc(-n2cc(C(=O)NC(C)c3nnc(-c4ccccc4)s3)nn2)c(C)n1 (single isomer, unassigned) [Example 263, 1-(2,6-dimethylpyridin-3-yl)-N-(1-(5-phenyl-1,3,4-thiadiazol-2-yl)ethyl)-1H-1,2,3-triazole-4-carboxamide] | 33 nM |
| CC(C#N)n1cc(C(=O)NCc2cc(-c3ccncc3)on2)nn1 (single isomer, unassigned) [Example 275, 1-(1-cyanoethyl)-N-((5-(pyridin-4-yl)isoxazol-3-yl)methyl)-1H-1,2,3-triazole-4-carboxamide] | 25 nM |
| O=C(NCc1nnc(-c2ccccc2)s1)c1cn([C@@H]2COC[C@H]2CO)nn1 (stereo in doubt) [Example 147, 1-[(3S,4R)-4-(hydroxymethyl)oxolan-3-yl]-N-[(5-phenyl-1,3,4-thiadiazol-2-yl)methyl]-1H-1,2,3-triazole-4-carboxamide] | 325 nM |
| Cc1ccc(-n2cc(C(=O)NCc3nnc(-c4ccccc4)s3)nn2)c(C)n1 [Example 1, 1-(2,6-dimethylpyridin-3-yl)-N-((5-phenyl-1,3,4-thiadiazol-2-yl)methyl)-1H-1,2,3-triazole-4-carboxamide] | 15 nM |
